{"source": "patent US12616698B2", "about": "“Methods for reducing liver fat and for treating fatty liver disorders” (Corcept Therapeutics Incorporated, priority 2021, dated 2026)", "system": "C57BL/6J male mice", "experiment": "AMLN diet NASH mouse model, drug provided in the AMLN diet", "type": "in vivo", "details": "60 mg/kg mifepristone in AMLN diet, 8 weeks, vs diet-alone control (FIG. 8A)", "procedure": "Two studies were conducted in C57BL/6J male mice (n=12 per group) maintained on a diet high in fat (40%), cholesterol (2%) and fructose (20%; referred to as the AMLN diet: see, e.g., Tolbol et al., World Journal of Gastroenterology, 24(2):179-194 (2018)) for 42 weeks before dosing with miricorilant was initiated. In the first study, all animals ate the AMLN diet, and received either placebo, 30 mg/kg miricorilant, or 60 mg/kg mifepristone once per day orally. […] All animals received the AMLN diet for 42 weeks prior to receiving their first dose of study drug or placebo. 4 weeks prior to receiving that first dose, a liver biopsy and histological examination of biopsy tissue was performed for each animal; 3 weeks prior to receiving that first dose, animals were randomized into three groups: control, miricorilant, or mifepristone. Only mice with fibrosis stage >=1 and steatosis score >=2 were allowed in the study and the groups were stratified according to liver col1a1 so that each study group had similar overall distributions of liver col1a1 among the mice. All animals continued on the study diet for the 3 weeks following randomization, at which time study drug or placebo administration began. All animals received their assigned drugs for 8 weeks (the 8 week in vivo study period). At 56 days (week 8) after initiation of drug administration, plasma ALT, AST, triglycerides, total cholesterol, and miricorilant levels were measured, and animals were sacrificed, liver necropsies were performed, liver histological ((NAFLD Activity Score, Fibrosis Stage, steatosis (scored using hematoxylin and eosin staining (HE)), col1a (scored using immunohistochemistry (IHC)) and Galectin-3 (IHC)) and liver biochemical measurements (including liver triglycerides and total cholesterol) were made, and liver and plasma samples were obtained for genetic ((e.g., RNA sequencing) and other analyses.\nThus, in these studies, the mice were subjected to a liver biopsy approximately 4 weeks before initiation of dosing with miricorilant and only mice with confirmed fibrosis (fibrosis stage ≥1) and steatosis (score ≥2) were entered into the study. At the end of the dosing period, blood samples were collected for determination of plasma ALT, AST, triglycerides, total cholesterol, and miricorilant. Liver samples were collected for analysis of triglycerides, total cholesterol, hydroxyproline, and histopathology. Body weight and food consumption were monitored throughout the study.\nType I collagen IHC staining Type I collagen (Southern Biotech, Cat. 1310-01) IHC were performed using standard procedures. Briefly, after antigen retrieval and blocking of endogenous peroxidase activity, slides were incubated with primary antibody. The primary antibody was detected using a polymeric HRP-linker antibody conjugate. Next, the primary antibody was visualized with DAB as chromogen. Finally, sections were counterstained in hematoxylin and cover-slipped.\nLiver Galectin-3 content Galectin-3 (Biolegend, Cat. #125402) IHC was performed using standard procedures. Briefly, after antigen retrieval and blocking of endogenous peroxidase activity, slides were incubated with primary antibody. The primary antibody was detected using a linker secondary antibody followed by amplification using a polymeric HRP-linker antibody conjugate. Next, the primary antibody was visualized with DAB as chromogen. Finally, sections were counterstained in hematoxylin and cover-slipped.\nTotal liver col1a1 was evaluated from liver samples stained with anti-type I collagen (col1a1) (Southern Biotech, cat. 1310-01) at the end of the treatment period (typically using low power (20×) magnification). Galectin-3 content was evaluated from images of liver samples stained with anti-Galectin-3 (BioLegend, Cat. 125402) at the end of the treatment period (typically using low power (20×) magnification). Terminal relative (left) and total (right) liver type I Collagen (Col1a1) quantification was determined by morphometry. […]", "data": [{"smiles": "CC#C[C@]1(O)CC[C@H]2[C@@H]3CCC4=CC(=O)CCC4=C3[C@@H](c3ccc(N(C)C)cc3)C[C@@]21C", "note": "[mifepristone, reference compound]", "values": [{"measurement": "Liver weight at termination of the study", "value": "significantly increased"}]}]}
